Measurements published in the kinase profiling compilation of Christmann-Franck et al. (2016).

Columns and labels:
Experiment in all cases: KINOMEscan competition binding
Conditions in all cases: compound 10.0 µM
TGFBR1 (human) = TGFBR1 (human) (UniProt P36897)
TAOK1 (human) = TAOK1 (human) (UniProt Q7L7X3)
MARK3 (human) = MARK3 (human) (UniProt P27448)
MYLK2 (human) = MYLK2 (human) (UniProt Q9H1R3)
TAOK3 (human) = TAOK3 (human) (UniProt Q9H2K8)
[1] = tested on: EGFR (human), P00533 [752-759 del]
WEE2 (human) = WEE2 (human) (UniProt P0C1S8)
IKBKE (human) = IKBKE (human) (UniProt Q14164)
IKBKE (human), sequence (Q14164 whole entry, looked up): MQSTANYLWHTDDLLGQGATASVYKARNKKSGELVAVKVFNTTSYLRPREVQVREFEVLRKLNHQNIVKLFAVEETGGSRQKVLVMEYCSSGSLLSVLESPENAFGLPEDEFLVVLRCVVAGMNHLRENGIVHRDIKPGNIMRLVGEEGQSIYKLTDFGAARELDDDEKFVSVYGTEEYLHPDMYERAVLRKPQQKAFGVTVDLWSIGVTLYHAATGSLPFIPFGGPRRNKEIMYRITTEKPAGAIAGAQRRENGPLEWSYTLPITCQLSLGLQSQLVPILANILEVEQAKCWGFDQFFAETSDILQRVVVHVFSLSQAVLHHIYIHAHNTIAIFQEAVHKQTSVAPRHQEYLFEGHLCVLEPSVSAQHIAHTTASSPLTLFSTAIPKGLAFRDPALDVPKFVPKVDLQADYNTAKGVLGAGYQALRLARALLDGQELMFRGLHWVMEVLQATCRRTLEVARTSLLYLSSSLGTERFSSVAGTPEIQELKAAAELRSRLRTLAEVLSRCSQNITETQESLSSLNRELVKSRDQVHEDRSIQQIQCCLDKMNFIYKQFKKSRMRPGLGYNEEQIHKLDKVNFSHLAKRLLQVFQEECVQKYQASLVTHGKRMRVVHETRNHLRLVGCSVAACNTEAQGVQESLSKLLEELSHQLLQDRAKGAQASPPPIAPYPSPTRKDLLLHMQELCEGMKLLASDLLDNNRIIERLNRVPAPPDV

DDR2 (human) = DDR2 (human) (UniProt Q16832)
PRKAA2 (human) = PRKAA2 (human) (UniProt P54646)
PRKAA2 (human), sequence (P54646 whole entry, looked up): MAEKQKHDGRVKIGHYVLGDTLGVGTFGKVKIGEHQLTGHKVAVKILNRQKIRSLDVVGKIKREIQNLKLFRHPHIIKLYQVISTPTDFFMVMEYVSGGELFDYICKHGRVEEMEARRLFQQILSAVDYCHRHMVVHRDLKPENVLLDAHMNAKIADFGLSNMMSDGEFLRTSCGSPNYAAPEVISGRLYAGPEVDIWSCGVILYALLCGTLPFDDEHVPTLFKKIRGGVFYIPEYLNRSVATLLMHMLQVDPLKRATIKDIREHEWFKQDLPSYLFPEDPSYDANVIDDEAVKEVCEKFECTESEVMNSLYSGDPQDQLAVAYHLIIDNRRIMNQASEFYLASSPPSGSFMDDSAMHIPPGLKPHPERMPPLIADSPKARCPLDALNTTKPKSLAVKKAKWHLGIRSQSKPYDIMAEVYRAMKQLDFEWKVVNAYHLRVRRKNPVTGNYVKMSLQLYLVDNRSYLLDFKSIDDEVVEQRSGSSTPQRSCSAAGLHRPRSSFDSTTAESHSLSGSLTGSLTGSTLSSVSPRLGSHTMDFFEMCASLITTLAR

PRKD1 (human) = PRKD1 (human) (UniProt Q15139)
FLT1 (human) = FLT1 (human) (UniProt P17948)
LIMK2 (human) = LIMK2 (human) (UniProt P53671)
AKT1 (human) = AKT1 (human) (UniProt P31749)
TRPM6 (human) = TRPM6 (human) (UniProt Q9BX84)
SRC (human) = SRC (human) (UniProt P12931)
SRC (human), sequence (P12931 whole entry, looked up): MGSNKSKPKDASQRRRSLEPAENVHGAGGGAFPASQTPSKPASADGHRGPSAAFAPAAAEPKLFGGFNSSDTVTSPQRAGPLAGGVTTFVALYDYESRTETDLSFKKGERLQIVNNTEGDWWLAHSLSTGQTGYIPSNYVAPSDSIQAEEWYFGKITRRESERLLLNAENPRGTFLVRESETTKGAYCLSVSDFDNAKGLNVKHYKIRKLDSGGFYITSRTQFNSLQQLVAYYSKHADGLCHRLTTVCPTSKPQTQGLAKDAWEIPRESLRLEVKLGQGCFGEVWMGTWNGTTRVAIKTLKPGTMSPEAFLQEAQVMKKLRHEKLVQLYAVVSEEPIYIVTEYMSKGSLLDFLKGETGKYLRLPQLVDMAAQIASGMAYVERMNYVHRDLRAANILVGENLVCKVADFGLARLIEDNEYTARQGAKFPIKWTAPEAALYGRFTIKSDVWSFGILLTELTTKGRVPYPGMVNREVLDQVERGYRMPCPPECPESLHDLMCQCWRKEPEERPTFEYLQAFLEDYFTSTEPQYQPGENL

PIM3 (human) = PIM3 (human) (UniProt Q86V86)
TXK (human) = TXK (human) (UniProt P42681)
ITK (human) = ITK (human) (UniProt Q08881)
CAMK1G (human) = CAMK1G (human) (UniProt Q96NX5)
[2] = molecular target: JAK3 JH1 catalytic (human) (UniProt P52333)
JAK3 JH1 catalytic (human), sequence (P52333 whole entry, looked up): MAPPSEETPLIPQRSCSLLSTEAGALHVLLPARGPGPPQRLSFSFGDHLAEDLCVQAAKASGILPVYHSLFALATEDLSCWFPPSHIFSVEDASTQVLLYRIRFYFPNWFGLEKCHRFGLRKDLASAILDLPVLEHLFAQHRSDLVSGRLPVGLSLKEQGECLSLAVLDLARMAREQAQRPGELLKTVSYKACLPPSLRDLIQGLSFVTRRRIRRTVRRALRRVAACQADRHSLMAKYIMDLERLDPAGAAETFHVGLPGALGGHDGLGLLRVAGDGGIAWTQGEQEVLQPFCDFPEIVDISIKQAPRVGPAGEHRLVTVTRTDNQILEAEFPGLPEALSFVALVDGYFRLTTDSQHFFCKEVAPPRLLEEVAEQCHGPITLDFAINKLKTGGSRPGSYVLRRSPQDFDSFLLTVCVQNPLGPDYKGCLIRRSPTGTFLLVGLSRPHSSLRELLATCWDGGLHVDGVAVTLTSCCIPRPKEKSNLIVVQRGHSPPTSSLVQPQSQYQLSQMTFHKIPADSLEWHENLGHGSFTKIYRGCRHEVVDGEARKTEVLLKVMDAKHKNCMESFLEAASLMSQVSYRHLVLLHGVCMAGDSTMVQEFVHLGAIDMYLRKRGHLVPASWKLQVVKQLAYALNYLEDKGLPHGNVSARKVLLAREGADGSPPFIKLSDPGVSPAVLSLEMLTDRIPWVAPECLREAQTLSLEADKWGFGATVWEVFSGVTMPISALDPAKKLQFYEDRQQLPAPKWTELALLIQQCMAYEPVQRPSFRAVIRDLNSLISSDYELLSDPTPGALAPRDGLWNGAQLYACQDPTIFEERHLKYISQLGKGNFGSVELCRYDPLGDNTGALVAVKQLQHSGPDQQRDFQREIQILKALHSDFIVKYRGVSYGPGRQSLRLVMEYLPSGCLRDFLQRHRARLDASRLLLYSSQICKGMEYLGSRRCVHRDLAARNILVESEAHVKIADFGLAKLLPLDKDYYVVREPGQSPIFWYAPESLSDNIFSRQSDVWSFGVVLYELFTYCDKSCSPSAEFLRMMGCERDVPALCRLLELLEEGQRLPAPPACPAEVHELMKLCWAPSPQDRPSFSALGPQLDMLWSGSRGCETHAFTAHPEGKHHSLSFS

EPHB6 (human) = EPHB6 (human) (UniProt O15197)
EPHB3 (human) = EPHB3 (human) (UniProt P54753)
MAPK1 (human) = MAPK1 (human) (UniProt P28482)
PIP5K1C (human) = PIP5K1C (human) (UniProt O60331)
EPHA3 (human) = EPHA3 (human) (UniProt P29320)
[3] = molecular target: JAK1 JH2 pseudokinase (human) (UniProt P23458)
JAK1 JH2 pseudokinase (human), sequence (P23458 whole entry, looked up): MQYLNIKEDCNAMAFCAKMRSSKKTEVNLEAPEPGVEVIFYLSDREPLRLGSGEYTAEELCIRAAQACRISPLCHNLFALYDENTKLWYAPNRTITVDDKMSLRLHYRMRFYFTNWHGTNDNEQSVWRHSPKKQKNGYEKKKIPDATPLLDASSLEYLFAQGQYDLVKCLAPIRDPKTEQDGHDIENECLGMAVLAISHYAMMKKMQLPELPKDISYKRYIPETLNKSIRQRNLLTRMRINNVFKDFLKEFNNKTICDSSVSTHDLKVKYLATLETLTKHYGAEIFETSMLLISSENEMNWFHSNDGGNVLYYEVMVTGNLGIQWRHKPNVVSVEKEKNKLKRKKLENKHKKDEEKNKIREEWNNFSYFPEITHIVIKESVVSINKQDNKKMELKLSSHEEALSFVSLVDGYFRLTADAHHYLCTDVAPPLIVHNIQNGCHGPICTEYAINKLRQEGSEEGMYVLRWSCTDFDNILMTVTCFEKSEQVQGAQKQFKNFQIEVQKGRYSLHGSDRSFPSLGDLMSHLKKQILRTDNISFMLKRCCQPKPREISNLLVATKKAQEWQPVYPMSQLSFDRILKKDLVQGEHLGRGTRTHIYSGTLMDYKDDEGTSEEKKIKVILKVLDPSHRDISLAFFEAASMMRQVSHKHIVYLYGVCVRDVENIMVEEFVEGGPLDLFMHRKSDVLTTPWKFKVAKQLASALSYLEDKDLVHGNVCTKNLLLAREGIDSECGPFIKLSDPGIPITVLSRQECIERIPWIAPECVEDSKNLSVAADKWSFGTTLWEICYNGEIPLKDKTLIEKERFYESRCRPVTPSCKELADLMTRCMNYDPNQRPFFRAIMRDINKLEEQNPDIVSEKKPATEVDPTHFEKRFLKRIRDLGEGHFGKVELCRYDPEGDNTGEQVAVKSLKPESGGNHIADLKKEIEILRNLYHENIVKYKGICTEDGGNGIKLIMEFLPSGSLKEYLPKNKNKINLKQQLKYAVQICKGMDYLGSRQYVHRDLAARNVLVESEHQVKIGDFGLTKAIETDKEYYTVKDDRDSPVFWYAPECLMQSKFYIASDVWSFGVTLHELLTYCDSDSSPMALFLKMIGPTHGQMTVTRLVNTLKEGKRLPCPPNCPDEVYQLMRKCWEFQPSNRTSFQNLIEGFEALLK

[4] = molecular target: JAK2 JH1 catalytic (human) (UniProt O60674)
MAST1 (human) = MAST1 (human) (UniProt Q9Y2H9)
MAP4K3 (human) = MAP4K3 (human) (UniProt Q8IVH8)
MLTK (human) = MLTK (human) (UniProt Q9NYL2)
MAP2K2 (human) = MAP2K2 (human) (UniProt P36507)
MAP4K5 (human) = MAP4K5 (human) (UniProt Q9Y4K4)
MKNK2 (human) = MKNK2 (human) (UniProt Q9HBH9)
PRKACB (human) = PRKACB (human) (UniProt P22694)
[5] = tested on: FLT3 (human), P36888 [D835H]
RPS6KA4 KD1 (human) = RPS6KA4 KD1 (human) (UniProt O75676)
RPS6KA4 KD1 (human), sequence (O75676 whole entry, looked up): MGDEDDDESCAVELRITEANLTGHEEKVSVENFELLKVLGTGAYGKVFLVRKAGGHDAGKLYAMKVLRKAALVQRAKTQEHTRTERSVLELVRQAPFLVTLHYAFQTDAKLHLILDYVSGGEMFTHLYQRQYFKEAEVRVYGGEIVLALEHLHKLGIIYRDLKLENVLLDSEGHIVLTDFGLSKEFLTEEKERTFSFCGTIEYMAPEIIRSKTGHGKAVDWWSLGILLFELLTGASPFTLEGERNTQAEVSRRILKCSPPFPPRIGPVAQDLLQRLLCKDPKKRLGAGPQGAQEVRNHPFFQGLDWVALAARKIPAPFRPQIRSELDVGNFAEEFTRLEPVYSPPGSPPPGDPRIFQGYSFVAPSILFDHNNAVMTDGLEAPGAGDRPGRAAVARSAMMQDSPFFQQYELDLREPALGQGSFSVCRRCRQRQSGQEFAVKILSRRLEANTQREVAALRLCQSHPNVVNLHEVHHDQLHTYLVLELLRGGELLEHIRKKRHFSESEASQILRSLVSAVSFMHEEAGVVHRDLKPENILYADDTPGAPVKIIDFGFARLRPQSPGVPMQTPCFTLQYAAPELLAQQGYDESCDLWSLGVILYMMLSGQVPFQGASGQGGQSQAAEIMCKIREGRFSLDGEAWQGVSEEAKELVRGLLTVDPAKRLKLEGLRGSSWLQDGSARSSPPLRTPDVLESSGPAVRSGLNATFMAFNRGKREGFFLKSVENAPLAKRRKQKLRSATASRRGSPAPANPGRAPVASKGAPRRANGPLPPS

STK10 (human) = STK10 (human) (UniProt O94804)
[6] = tested on: EGFR (human), P00533 [747-751 del / S ins]
CSF1R (human) = CSF1R (human) (UniProt P07333)

O=C1NC(=O)/C(=C/c2ccc3nccc(-c4ccncc4)c3c2)S1
kinase still bound, per cent of control (TGFBR1 (human)): 20% | kinase still bound, per cent of control (TAOK1 (human)): 3% | kinase still bound, per cent of control (MARK3 (human)): 100% | kinase still bound, per cent of control (MYLK2 (human)): 46% | kinase still bound, per cent of control (TAOK3 (human)): 13% | kinase still bound, per cent of control [1]: 95% | kinase still bound, per cent of control (WEE2 (human)): 95% | kinase still bound, per cent of control (IKBKE (human)): 45% | kinase still bound, per cent of control (DDR2 (human)): 63% | kinase still bound, per cent of control (PRKAA2 (human)): 93% | kinase still bound, per cent of control (PRKD1 (human)): 89% | kinase still bound, per cent of control (FLT1 (human)): 73% | kinase still bound, per cent of control (LIMK2 (human)): 100% | kinase still bound, per cent of control (AKT1 (human)): 90% | kinase still bound, per cent of control (TRPM6 (human)): 97% | kinase still bound, per cent of control (SRC (human)): 69% | kinase still bound, per cent of control (PIM3 (human)): 2.4% | kinase still bound, per cent of control (TXK (human)): 79% | kinase still bound, per cent of control (ITK (human)): 81% | kinase still bound, per cent of control (CAMK1G (human)): 32% | kinase still bound, per cent of control [2]: 0% | kinase still bound, per cent of control (EPHB6 (human)): 39% | kinase still bound, per cent of control (EPHB3 (human)): 71% | kinase still bound, per cent of control (MAPK1 (human)): 100% | kinase still bound, per cent of control (PIP5K1C (human)): 28% | kinase still bound, per cent of control (EPHA3 (human)): 75% | kinase still bound, per cent of control [3]: 57% | kinase still bound, per cent of control [4]: 31% | kinase still bound, per cent of control (MAST1 (human)): 83% | kinase still bound, per cent of control (MAP4K3 (human)): 67% | kinase still bound, per cent of control (MLTK (human)): 16% | kinase still bound, per cent of control (MAP2K2 (human)): 4.4% | kinase still bound, per cent of control (MAP4K5 (human)): 41% | kinase still bound, per cent of control (MKNK2 (human)): 49% | kinase still bound, per cent of control (PRKACB (human)): 31% | kinase still bound, per cent of control [5]: 31% | kinase still bound, per cent of control (RPS6KA4 KD1 (human)): 79% | kinase still bound, per cent of control (STK10 (human)): 0.1% | kinase still bound, per cent of control [6]: 84%

C[C@@H](Oc1cc(-c2cnn(C3CCNCC3)c2)cnc1N)c1c(Cl)ccc(F)c1Cl
kinase still bound, per cent of control (TGFBR1 (human)): 4% | kinase still bound, per cent of control (TAOK1 (human)): 1.2% | kinase still bound, per cent of control (MYLK2 (human)): 73% | kinase still bound, per cent of control (TAOK3 (human)): 1.4% | kinase still bound, per cent of control (WEE2 (human)): 100% | kinase still bound, per cent of control (IKBKE (human)): 60% | kinase still bound, per cent of control (DDR2 (human)): 0% | kinase still bound, per cent of control (PRKAA2 (human)): 17% | kinase still bound, per cent of control (PRKD1 (human)): 2.4% | kinase still bound, per cent of control (FLT1 (human)): 25% | kinase still bound, per cent of control (LIMK2 (human)): 4.6% | kinase still bound, per cent of control (AKT1 (human)): 100% | kinase still bound, per cent of control (TRPM6 (human)): 79% | kinase still bound, per cent of control (SRC (human)): 0.55% | kinase still bound, per cent of control (PIM3 (human)): 100% | kinase still bound, per cent of control (TXK (human)): 5.9% | kinase still bound, per cent of control (ITK (human)): 33% | kinase still bound, per cent of control (CAMK1G (human)): 76% | kinase still bound, per cent of control [2]: 0.65% | kinase still bound, per cent of control (EPHB6 (human)): 0.2% | kinase still bound, per cent of control (EPHB3 (human)): 100% | kinase still bound, per cent of control (MAPK1 (human)): 100% | kinase still bound, per cent of control (PIP5K1C (human)): 63% | kinase still bound, per cent of control (EPHA3 (human)): 11% | kinase still bound, per cent of control [3]: 1.8% | kinase still bound, per cent of control [4]: 1.4% | kinase still bound, per cent of control (MAST1 (human)): 100% | kinase still bound, per cent of control (MLTK (human)): 100% | kinase still bound, per cent of control (MAP2K2 (human)): 54% | kinase still bound, per cent of control (CSF1R (human)): 0.15% | kinase still bound, per cent of control (MKNK2 (human)): 11% | kinase still bound, per cent of control (PRKACB (human)): 100% | kinase still bound, per cent of control [5]: 6.8% | kinase still bound, per cent of control (RPS6KA4 KD1 (human)): 100% | kinase still bound, per cent of control (STK10 (human)): 0%

N#CCNC(=O)c1ccc(-c2ccnc(Nc3ccc(N4CCOCC4)cc3)n2)cc1
kinase still bound, per cent of control (TGFBR1 (human)): 76% | kinase still bound, per cent of control (TAOK1 (human)): 32% | kinase still bound, per cent of control (MARK3 (human)): 16% | kinase still bound, per cent of control (MYLK2 (human)): 23% | kinase still bound, per cent of control (TAOK3 (human)): 100% | kinase still bound, per cent of control [1]: 72% | kinase still bound, per cent of control (WEE2 (human)): 100% | kinase still bound, per cent of control (IKBKE (human)): 5.2% | kinase still bound, per cent of control (DDR2 (human)): 100% | kinase still bound, per cent of control (PRKAA2 (human)): 74% | kinase still bound, per cent of control (PRKD1 (human)): 22% | kinase still bound, per cent of control (FLT1 (human)): 55% | kinase still bound, per cent of control (LIMK2 (human)): 68% | kinase still bound, per cent of control (AKT1 (human)): 100% | kinase still bound, per cent of control (TRPM6 (human)): 100% | kinase still bound, per cent of control (SRC (human)): 100% | kinase still bound, per cent of control (PIM3 (human)): 100% | kinase still bound, per cent of control (TXK (human)): 100% | kinase still bound, per cent of control (ITK (human)): 98% | kinase still bound, per cent of control (CAMK1G (human)): 30% | kinase still bound, per cent of control [2]: 0.3% | kinase still bound, per cent of control (EPHB6 (human)): 58% | kinase still bound, per cent of control (EPHB3 (human)): 100% | kinase still bound, per cent of control (MAPK1 (human)): 93% | kinase still bound, per cent of control (PIP5K1C (human)): 54% | kinase still bound, per cent of control (EPHA3 (human)): 69% | kinase still bound, per cent of control [3]: 100% | kinase still bound, per cent of control [4]: 0.1% | kinase still bound, per cent of control (MAST1 (human)): 42% | kinase still bound, per cent of control (MAP4K3 (human)): 57% | kinase still bound, per cent of control (MLTK (human)): 100% | kinase still bound, per cent of control (MAP2K2 (human)): 100% | kinase still bound, per cent of control (MAP4K5 (human)): 100% | kinase still bound, per cent of control (MKNK2 (human)): 1.2% | kinase still bound, per cent of control (PRKACB (human)): 36% | kinase still bound, per cent of control (RPS6KA4 KD1 (human)): 100% | kinase still bound, per cent of control (STK10 (human)): 100% | kinase still bound, per cent of control [6]: 70%
